Test results taken from patent US8420651B2, “Substituted 1-alkylcinnolin-4(1H)-one derivatives, preparation thereof and therapeutic application of same” (Sanofi, priority 2009, dated 2013).

| melting point [°C] | SMILES |
| --- | --- |
| 118 to 121 | COc1ccc(F)cc1-c1nn(CCCC(F)(F)F)c2ccccc2c1=O [Compound 16, 3-(5-Fluoro-2-methoxyphenyl)-1-(4,4,4-trifluorobutyl)cinnolin-4(1H)-one] |
| 137 to 138 | O=c1c(-c2cccc(C(F)(F)F)c2Cl)nn(CCCCC(F)(F)F)c2cc(Cl)ccc12 [Compound 17, 7 Chloro-3-[2-chloro-3-(trifluoromethyl)phenyl]-1-(5,5,5-trifluoropentyl)-cinnolin-4(1H)-one] |
| 62 to 64 | COc1cccc2c(=O)c(-c3cccc(C(F)(F)F)c3F)nn(CCCNS(C)(=O)=O)c12 [Compound 18, N-(3-[3-[2-Fluoro-3-(trifluoromethyl)phenyl]-8-methoxy-4-oxocinnolin-1(4H)-yl]propyl)methanesulphonamide] |
| 95 to 98 | COc1cccc2c(=O)c(-c3cccc(C(F)(F)F)c3Cl)nn(CCCNS(C)(=O)=O)c12 [Compound 19, N-[3-[3-[2-Chloro-3-(trifluoromethyl)phenyl]-8-methoxy-4-oxocinnolin-1(4H)-yl]propyl]methanesulphonamide] |
| 66 to 68 | COc1cccc2c(=O)c(-c3cccc(F)c3C(F)(F)F)nn(CCCNS(C)(=O)=O)c12 [Compound 20, N-[3-[3-[3-Fluoro-2-(trifluoromethyl)phenyl]-8-methoxy-4-oxocinnolin-1(4H)-yl]propyl]methanesulphonamide] |
| 138 to 139 | COc1cccc2c(=O)c(-c3cccc(C(F)(F)F)c3F)nn(CCCS(C)(=O)=O)c12 [Compound 24, 3-[2-Fluoro-3-(trifluoromethyl)phenyl]-1-(3-(methanesulphonyl)propyl)-8-methoxy-1H-cinnolin-4-one] |
| 128 to 130 | CS(=O)(=O)NCCCn1nc(-c2cccc(C(F)(F)F)c2F)c(=O)c2ccc(C(F)(F)F)cc21 [Compound 25, N-{3-[3-[2-Fluoro-3-(trifluoromethyl)phenyl]-4-oxo-7-trifluoromethyl-4H-cinnolin-1-yl]propyl}methanesulphonamide] |
| 149 to 152 | CS(=O)(=O)NCCCn1nc(-c2cccc(C(F)(F)F)c2F)c(=O)c2ccccc21 [Compound 27, N-{3-[3-[2-Fluoro-3-(trifluoromethyl)phenyl]-4-oxo-4H-cinnolin-1-yl]-propyl}methanesulphonamide] |
| 73 to 75 | CCSCCn1nc(-c2cccc(C(F)(F)F)c2F)c(=O)c2cccc(OC)c21 [Compound 29, 1-[2-(Ethylthio)ethyl]-3-[2-fluoro-3-(trifluoromethyl)phenyl]-8-methoxycinnolin-4(1H)-one] |
| 99 to 101 | CC[S+]([O-])CCn1nc(-c2cccc(C(F)(F)F)c2F)c(=O)c2cccc(OC)c21 (stereo not drawn) [Compound 30, 1-[2-(Ethylsulphinyl)ethyl]-3-[2-fluoro-3-(trifluoromethyl)phenyl]-8-methoxycinnolin-4(1H)-one] |
| 138 to 139 | CCS(=O)(=O)CCn1nc(-c2cccc(C(F)(F)F)c2F)c(=O)c2cccc(OC)c21 [Compound 31, 1-[2-(Ethylsulphonyl)ethyl]-3-[2-fluoro-3-(trifluoromethyl)phenyl]-8-methoxycinnolin-4(1H)-one] |
| 98 to 101 | COc1cccc2c(=O)c(-c3cccc(OC(F)(F)F)c3)nn(CCCNS(C)(=O)=O)c12 [Compound 35, N-(3-{8-Methoxy-4-oxo-3-[3-(trifluoromethoxy)phenyl]cinnolin-1(4H)-yl}propyl)methanesulphonamide] |
| 127 to 130 | COc1cccc2c(=O)c(-c3cccc(C(F)(F)F)c3F)nn(CCCNS(=O)(=O)C(F)(F)F)c12 [Compound 36, 1,1,1-Trifluoro-N-(3-{3-[2-fluoro-3-(trifluoromethyl)phenyl]-8-methoxy-4-oxocinnolin-1(4H)-yl}propyl)methanesulphonamide] |
| 51 to 53 | COc1cccc2c(=O)c(-c3cccc(C(F)(F)F)c3F)nn(CCCNC(=O)C(F)(F)F)c12 [Compound 37, 2,2,2-Trifluoro-N-(3-{3-[2-fluoro-3-(trifluoromethyl)phenyl]-8-methoxy-4-oxocinnolin-1(4H)-yl}propyl)acetamide] |
| 155 to 157 | CS(=O)(=O)NCCCn1nc(-c2cccc(C(F)(F)F)c2F)c(=O)c2ccc(Cl)cc21 [Compound 38, N-(3-{7-Chloro-3-[2-fluoro-3-(trifluoromethyl)phenyl]-4-oxocinnolin-1(4H)-yl}propyl)methanesulphonamide] |
| 117 to 119 | CCSCCn1nc(-c2cccc(C(F)(F)F)c2F)c(=O)c2ccc(Cl)cc21 [Compound 41, 7-Chloro-1-[2-(ethylthio)ethyl]-3-[2-fluoro-3-(trifluoromethyl)phenyl]cinnolin-4(1H)-one] |
| 66 to 68 | CCSCCn1nc(-c2cccc(OC(F)(F)F)c2)c(=O)c2ccc(Cl)cc21 [Compound 46, 7-Chloro-1-[2-(ethylthio)ethyl]-3-[3-(trifluoromethoxy)phenyl]cinnolin-4(1H)-one] |
| 86 to 89 | CCSCCn1nc(-c2cccc(OC(F)(F)F)c2)c(=O)c2cccc(OC)c21 [Compound 49, 1-[2-(Ethylthio)ethyl]-8-methoxy-3-[3-(trifluoromethoxy)phenyl]cinnolin-4(1H)-one] |
| 130 to 132 | CCS(=O)(=O)CCn1nc(-c2cccc(OC(F)(F)F)c2)c(=O)c2cccc(OC)c21 [Compound 50, 1-[2-(Ethylsulphonyl)ethyl]-8-methoxy-3-[3-(trifluoromethoxy)phenyl]cinnolin-4(1H)-one] |
| 145 to 146 | COc1cccc2c(=O)c(-c3cccc(C(F)(F)F)c3F)nn(CCNS(C)(=O)=O)c12 [Compound 55, N-(2-{3-[2-Fluoro-3-(trifluoromethyl)phenyl]-8-methoxy-4-oxocinnolin-1(4H)-yl}ethyl)methanesulphonamide] |

The next lines start with the molecule.

| SMILES | melting point [°C] |
| --- | --- |
| O=c1c(-c2cccc(C(F)(F)F)c2)nn(CCCCC(F)(F)F)c2ccccc12 | 80 to 81 |
| CCCCCn1nc(-c2cccc(C(F)(F)F)c2)c(=O)c2ccccc21 | 53 to 55 |
| CCCCCn1nc(-c2cccc(C(F)(F)F)c2F)c(=O)c2cccc(OC)c21 | 82 to 84 |
| COc1cccc2c(=O)c(-c3cccc(Cl)c3Cl)nn(CCCNS(C)(=O)=O)c12 | 66 to 68 |
| CS(=O)(=O)NCCCn1nc(-c2cccc(Cl)c2Cl)c(=O)c2ccc(C(F)(F)F)cc21 | 80 to 83 |
| CCCCCn1nc(-c2cccc(C(F)(F)F)c2F)c(=O)c2ccccc21 | 78 to 80 |
| CC[S+]([O-])CCn1nc(-c2cccc(Cl)c2Cl)c(=O)c2cccc(OC)c21 (stereo not drawn) | 128 to 130 |
| COc1cccc2c(=O)c(-c3cccc(Cl)c3Cl)nn(CCCN(C)S(C)(=O)=O)c12 | 179 to 181 |
| CCSCCn1nc(-c2cccc(Cl)c2Cl)c(=O)c2ccc(Cl)cc21 | 75 to 77 |
| CC[S+]([O-])CCn1nc(-c2cccc(Cl)c2Cl)c(=O)c2ccc(Cl)cc21 (stereo not drawn) | 75 to 77 |
| CCS(=O)(=O)CCn1nc(-c2cccc(Cl)c2Cl)c(=O)c2ccc(Cl)cc21 | 76 to 79 |
| CCCCCn1nc(-c2cccc(OC(F)(F)F)c2)c(=O)c2cccc(OC)c21 | 50 to 52 |
| CCOCCn1nc(-c2cccc(Cl)c2Cl)c(=O)c2cccc(OC)c21 | 134 to 135 |
| COc1cccc2c(=O)c(-c3cccc(Cl)c3Cl)nn(CCCNS(=O)(=O)N(C)C)c12 | 62 to 65 |
| O=c1c(-c2cccc(C(F)(F)F)c2F)nn(CCCCF)c2ccccc12 | 91 to 93 |
| CCCCCn1nc(-c2cccc(C(F)(F)F)c2Cl)c(=O)c2cccc(OC)c21 | 90 to 91 |
| O=c1c(-c2cccc(C(F)(F)F)c2F)nn(CCCCC(F)(F)F)c2ccccc12 [Compound 4, 3-[2-Fluoro-3-(trifluoromethyl)phenyl]-1-(5,5,5-trifluoropentyl)cinnolin-4(1H)-one] | 118 to 120 |
| O=c1c(-c2cccc(C(F)(F)F)c2F)nn(CCCC(F)(F)F)c2ccccc12 [Compound 6, 3-[2-Fluoro-3-(trifluoromethyl)phenyl]-1-(4,4,4-trifluorobutyl)cinnolin-4(1H)-one] | 96 to 99 |
| CSCCCn1nc(-c2cccc(C(F)(F)F)c2F)c(=O)c2ccccc21 [Compound 7, 3-(2-Fluoro-3-(trifluoromethyl)phenyl)-1-[3-(methylthio)propyl]cinnolin-4(1H)-one] | 80 to 83 |
